From ChEMBL document CHEMBL5303573, “Mapping human microbiome drug metabolism by gut bacteria and their genes” (Nature, 2019)

What was measured:
[1] = The drug is tested on Bifidobacterium breve strain: DSM20213 for biotransformation. The drug concentrations were measured before and after a 12-h incubation by liquid-chromatography-coupled mass spectrometry (LC–MS); settings: 2 µM
[2] = The drug is tested on Bifidobacterium longum subsp. Infantis strain: CCUG52486 for biotransformation. The drug concentrations were measured before and after a 12-h incubation by liquid-chromatography-coupled mass spectrometry (LC–MS); settings: 2 µM
[3] = The drug is tested on Collinsella aerofaciens strain: ATCC25986 for biotransformation. The drug concentrations were measured before and after a 12-h incubation by liquid-chromatography-coupled mass spectrometry (LC–MS); settings: 2 µM
[4] = The drug is tested on Collinsella intestinalis strain: DSM13280 for biotransformation. The drug concentrations were measured before and after a 12-h incubation by liquid-chromatography-coupled mass spectrometry (LC–MS); settings: 2 µM
[5] = The drug is tested on Alistipes indistinctus strain: DSM22520 for biotransformation. The drug concentrations were measured before and after a 12-h incubation by liquid-chromatography-coupled mass spectrometry (LC–MS); settings: 2 µM
[6] = The drug is tested on Bacteroides caccae strain: ATCC43185 for biotransformation. The drug concentrations were measured before and after a 12-h incubation by liquid-chromatography-coupled mass spectrometry (LC–MS); settings: 2 µM
[7] = The drug is tested on Bacteroides dorei strain: DSM17855 for biotransformation. The drug concentrations were measured before and after a 12-h incubation by liquid-chromatography-coupled mass spectrometry (LC–MS); settings: phocaeicola dorei, 2 µM
[8] = The drug is tested on Bacteroides fragilis strain: HMW610 for biotransformation. The drug concentrations were measured before and after a 12-h incubation by liquid-chromatography-coupled mass spectrometry (LC–MS); settings: 2 µM
[9] = The drug is tested on Bacteroides fragilis strain: ATCC43859 for biotransformation. The drug concentrations were measured before and after a 12-h incubation by liquid-chromatography-coupled mass spectrometry (LC–MS); settings: 2 µM
[10] = The drug is tested on Bacteroides pectinophilus strain: ATCC43243 for biotransformation. The drug concentrations were measured before and after a 12-h incubation by liquid-chromatography-coupled mass spectrometry (LC–MS); settings: 2 µM
[11] = The drug is tested on Bacteroides vulgatus strain: ATCC8482 for biotransformation. The drug concentrations were measured before and after a 12-h incubation by liquid-chromatography-coupled mass spectrometry (LC–MS); settings: phocaeicola vulgatus, 2 µM
[12] = The drug is tested on Bacteroides xylanisolvens strain: DSM18836 for biotransformation. The drug concentrations were measured before and after a 12-h incubation by liquid-chromatography-coupled mass spectrometry (LC–MS); settings: 2 µM
[13] = The drug is tested on Parabacteroides merdae strain: ATCC43184 for biotransformation. The drug concentrations were measured before and after a 12-h incubation by liquid-chromatography-coupled mass spectrometry (LC–MS); settings: 2 µM
[14] = The drug is tested on Anaerococcus hydrogenalis strain: DSM7454 for biotransformation. The drug concentrations were measured before and after a 12-h incubation by liquid-chromatography-coupled mass spectrometry (LC–MS); settings: 2 µM
[15] = The drug is tested on Anaerotruncus colihominis strain: DSM17241 for biotransformation. The drug concentrations were measured before and after a 12-h incubation by liquid-chromatography-coupled mass spectrometry (LC–MS); settings: 2 µM
[16] = The drug is tested on Blautia luti strain: DSM14534 for biotransformation. The drug concentrations were measured before and after a 12-h incubation by liquid-chromatography-coupled mass spectrometry (LC–MS); assay type: ADME; parameters: dose 2 uM, timepoint 0 vs 12 hours; settings: 2 µM
[17] = The drug is tested on Clostridium asparagiforme strain: DSM15981 for biotransformation. The drug concentrations were measured before and after a 12-h incubation by liquid-chromatography-coupled mass spectrometry (LC–MS); assay type: ADME; parameters: dose 2 uM, timepoint 0 vs 12 hours; settings: enterocloster asparagiformis, 2 µM
[18] = The drug is tested on Clostridium ramosum strain: DSM1402 for biotransformation. The drug concentrations were measured before and after a 12-h incubation by liquid-chromatography-coupled mass spectrometry (LC–MS); settings: thomasclavelia ramosa, 2 µM
[19] = The drug is tested on Clostridium scindens strain: ATCC35704 for biotransformation. The drug concentrations were measured before and after a 12-h incubation by liquid-chromatography-coupled mass spectrometry (LC–MS); settings: 2 µM
[20] = The drug is tested on Clostridium symbiosum strain: ATCC14940 for biotransformation. The drug concentrations were measured before and after a 12-h incubation by liquid-chromatography-coupled mass spectrometry (LC–MS); settings: 2 µM
[21] = The drug is tested on Coprococcus comes strain: ATCC27758 for biotransformation. The drug concentrations were measured before and after a 12-h incubation by liquid-chromatography-coupled mass spectrometry (LC–MS); assay type: ADME; parameters: dose 2 uM, timepoint 0 vs 12 hours; settings: 2 µM
[22] = The drug is tested on Dorea formicigenerans strain: ATCC27755 for biotransformation. The drug concentrations were measured before and after a 12-h incubation by liquid-chromatography-coupled mass spectrometry (LC–MS); settings: 2 µM
[23] = The drug is tested on Enterococcus faecalis strain: V583 for biotransformation. The drug concentrations were measured before and after a 12-h incubation by liquid-chromatography-coupled mass spectrometry (LC–MS); settings: 2 µM
[24] = The drug is tested on Eubacterium ventriosum strain: ATCC27560 for biotransformation. The drug concentrations were measured before and after a 12-h incubation by liquid-chromatography-coupled mass spectrometry (LC–MS); assay type: ADME; parameters: dose 2 uM, timepoint 0 vs 12 hours; settings: 2 µM
[25] = The drug is tested on Ruminococcus gnavus strain: ATCC29149 for biotransformation. The drug concentrations were measured before and after a 12-h incubation by liquid-chromatography-coupled mass spectrometry (LC–MS); settings: mediterraneibacter gnavus, 2 µM
[26] = The drug is tested on Ruminococcus torques strain: ATCC27756 for biotransformation. The drug concentrations were measured before and after a 12-h incubation by liquid-chromatography-coupled mass spectrometry (LC–MS); assay type: ADME; parameters: dose 2 uM, timepoint 0 vs 12 hours; settings: 2 µM
[27] = The drug is tested on Edwardsiella tarda strain: ATCC23685 for biotransformation. The drug concentrations were measured before and after a 12-h incubation by liquid-chromatography-coupled mass spectrometry (LC–MS); settings: 2 µM
[28] = The drug is tested on Enterobacter cancerogenus strain: ATCC35316 for biotransformation. The drug concentrations were measured before and after a 12-h incubation by liquid-chromatography-coupled mass spectrometry (LC–MS); settings: 2 µM
[29] = The drug is tested on Escherichia coli strain: BW25113 for biotransformation. The drug concentrations were measured before and after a 12-h incubation by liquid-chromatography-coupled mass spectrometry (LC–MS); settings: 2 µM
[30] = The drug is tested on Providencia stuartii strain: ATCC25827 for biotransformation. The drug concentrations were measured before and after a 12-h incubation by liquid-chromatography-coupled mass spectrometry (LC–MS); settings: 2 µM
[31] = bifidobacterium adolescentis, 12 h, 2 µM
Description: The drug is tested on Bifidobacterium adolescentis strain: ATCC 15703 for biotransformation. The drug concentrations were measured before and after a 12-h incubation by liquid-chromatography-coupled mass spectrometry (LC–MS)

[32] = bacteroides stercoris, 12 h, 2 µM
Description: The drug is tested on Bacteroides stercoris strain: ATCC43183 for biotransformation. The drug concentrations were measured before and after a 12-h incubation by liquid-chromatography-coupled mass spectrometry (LC–MS)

[33] = bacteroides thetaiotaomicron, 12 h, 2 µM
Description: The drug is tested on Bacteroides thetaiotaomicron strain: 3731 for biotransformation. The drug concentrations were measured before and after a 12-h incubation by liquid-chromatography-coupled mass spectrometry (LC–MS)

[34] = parabacteroides distasonis, 12 h, 2 µM
Description: The drug is tested on Parabacteroides distasonis strain: ATCC8503 for biotransformation. The drug concentrations were measured before and after a 12-h incubation by liquid-chromatography-coupled mass spectrometry (LC–MS)

[35] = parabacteroides johnsonii, 12 h, 2 µM
Description: The drug is tested on Parabacteroides johnsonii strain: DSM18315 for biotransformation. The drug concentrations were measured before and after a 12-h incubation by liquid-chromatography-coupled mass spectrometry (LC–MS)

[36] = segatella copri, 12 h, 2 µM
Description: The drug is tested on Prevotella copri strain: DSM18205 for biotransformation. The drug concentrations were measured before and after a 12-h incubation by liquid-chromatography-coupled mass spectrometry (LC–MS)

[37] = anaerostipes sp., 12 h, 2 µM
Description: The drug is tested on Anaerostipes sp. strain: fecal isolate for biotransformation. The drug concentrations were measured before and after a 12-h incubation by liquid-chromatography-coupled mass spectrometry (LC–MS)

[38] = enterocloster bolteae, 12 h, 2 µM
Description: The drug is tested on Clostridium bolteae strain: ATCCBAA-613 for biotransformation. The drug concentrations were measured before and after a 12-h incubation by liquid-chromatography-coupled mass spectrometry (LC–MS)

[39] = limosilactobacillus reuteri cf48-3a, 12 h, 2 µM
Description: The drug is tested on Lactobacillus reuteri CF48-3A strain: BEI HM-102 for biotransformation. The drug concentrations were measured before and after a 12-h incubation by liquid-chromatography-coupled mass spectrometry (LC–MS)

[40] = akkermansia muciniphila, 12 h, 2 µM
Description: The drug is tested on Akkermansia muciniphila strain: ATCC BAA-835 for biotransformation. The drug concentrations were measured before and after a 12-h incubation by liquid-chromatography-coupled mass spectrometry (LC–MS)

Measured: Bacterial Biotransformation

Nc1nc(NC2CC2)c2ncn([C@H]3C=C[C@@H](CO)C3)c2n1.Nc1nc(NC2CC2)c2ncn([C@H]3C=C[C@@H](CO)C3)c2n1.O=S(=O)(O)O [ABACAVIR SULFATE]
Compound NOT metabolized: all assays above
